The record followed here is PubChem BioAssay AID849 (SRMLSC, 2007).

In this experiment the test system is Saccharomyces cerevisiae lifespan shortening, growth inhibition. As to the kind of experiment: Saccharomyces cerevisiae growth inhibition potency – dose response (AID 849).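 Also: yeast growth read as optical density after two days at 30 degrees C.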

pIC50: −log10 of the molar value. The source made the active and inactive calls. No rule for the calls is given here. A value given as a limit tells only on which side of the number the result lay.

The pIC50 is the IC50 on a negative log10 scale, so that one unit is a factor of ten. In the case of `Cc1cc(=O)[nH]c(-n2nc(C)cc2C)n1`, the negative-log IC50 (pIC50) was 4.84.

In the case of `COc1cccc(-n2nnnc2S(C)(=O)=O)c1`, the pIC50 is 5.02. Usually IC50 stands for the point on the concentration scale where inhibition reaches its midpoint. Consider `Cc1ccc(S(=O)(=O)Nc2ccc(SC(F)F)cc2)c(C)c1`, for which the IC50 was > 100 µM (inactive). `CCC(=O)NC(c1ccc(C)cc1)c1cc([N+](=O)[O-])c2cccnc2c1O` (stereo unspecified): the pIC50 was 4.60. Regarding `O=C(CSCc1ccco1)Nc1cc(C(F)(F)F)ccc1N1CCOCC1`, the IC50 was > 100 µM (inactive). Consider `CCOc1ccc(-c2[nH]ncc2Oc2cccc(OC)c2)c(O)c1`, for which the pIC50 was 4.64. `CCSc1ncc(/C=N/Nc2ccc(Cl)cc2)n1C`: the pIC50 was 4.44. Turning to `Cc1ccccc1C(=O)NNC(=S)NC(=O)COc1ccccc1`, the negative-log IC50 (pIC50) is 4.33. Regarding `CCCCn1c(=O)c(C(=O)NCc2ccncc2)c(O)c2ccccc21`, the IC50 is > 100 µM (inactive). For `C=CCNC1=C(Cl)C(=O)c2ccccc2C1=O`, the IC50 is > 100 µM (inactive).

With `CC(C)N=c1scc(-c2cccs2)n1/N=C/c1ccc(O)c(O)c1O`, the IC50 is > 100 µM (inactive). Turning to `Clc1ccc(N/N=C/c2ccncc2)cc1Cl`, the IC50 is > 100 µM (inactive). On to `O=C(O)c1ccc(SCc2cnc(Cl)s2)cc1`, for which the pIC50 was 5.13. `CCn1ncc(C2=NOC(C(=O)Nc3c(C)n(C)n(-c4ccccc4)c3=O)C2)c1C` (stereo unspecified): the IC50 was > 100 µM (inactive). Turning to `O=C(CCCSc1ccccc1)Nc1nc(-c2ccccn2)cs1`, the negative-log IC50 (pIC50) was 4.30. As for `CCc1cc2c(cc(C(=O)O)n2C)s1`, the negative-log IC50 (pIC50) was 4.42. As for `O=C(Nc1nc(-c2ccccn2)cs1)C1COc2ccccc2O1` (stereo unspecified), the pIC50 was 4.90. In the case of `O=S(=O)(/N=C(\Sc1ccc(Cl)cc1)c1ccccc1)c1ccccc1`, the negative-log IC50 (pIC50) is 4.31. Take `CCCCCCCCCCCCCCCC[n+]1ccc(C(N)=O)cc1`: the negative-log IC50 (pIC50) is 5.96. Turning to `COc1ccc(CN2CN(C(C)C)CSC2=S)cc1`, the negative-log IC50 (pIC50) is 4.45. For `Cc1cc(C)c2c(N=NN(C)C)[nH]nc2n1`, the negative-log IC50 (pIC50) is 4.91. For `O=C(Nc1cc(C(F)(F)F)ccc1Cl)C(Sc1cccc[n+]1[O-])c1ccccc1` (stereo unspecified), the pIC50 was 5.31. Regarding `Nc1[nH]c(=O)ncc1F`, the pIC50 is 4.93. As for `Cc1ccc(C)c(/C=C/C(=O)c2ccccc(=O)c2O)c1`, the pIC50 is 5.19. Consider `CCSc1nnc(NC(=O)c2ccccn2)s1`, for which the negative logarithm of the IC50 (pIC50) was 5.01. With `CC1(CCc2ccccc2)NC(=S)N(c2ccccc2)N1` (stereo unspecified), the pIC50 was 4.85. For the compound `CC(C)(Oc1ccc(Cl)cc1)C(=O)NC1=NN(c2ccccc2)C(=O)C1`, the pIC50 was 4.74.

As for `CCOc1cccc(-c2nnc3n2N=C(c2cc(OC)ccc2OC)CS3)c1`, the IC50 is > 100 µM (inactive). Take `COC(=O)Cn1c2ccc(C)cc2c2nc(C)sc21`: the IC50 was > 100 µM (inactive). Regarding `CNC(=O)c1cc2c(ccc3ccccc32)oc1=N`, the pIC50 was 4.91. Still for that read-out and setting: under `C/C(=N\Nc1ccc(Cl)c(Cl)c1)c1ccc(-n2ccnc2)cc1` stands 4.52. For the compound `NC(N)=N/N=C/c1ccc(OCc2ccc(Cl)cc2Cl)cc1`, the IC50 is > 100 µM (inactive). Take `COc1ccccc1OCC(=O)n1cc(C(=O)c2cc(Cl)cc(Cl)c2O)cn1`: the negative logarithm of the IC50 (pIC50) is 5.23. For the compound `Nc1nc2sc3c(c2c(=O)s1)CCCC3`, the IC50 was > 100 µM (inactive). `CC1(C)C(C=C(Cl)Cl)C1C(=O)Nc1ccc([N+](=O)[O-])cc1` (stereo unspecified): the pIC50 was 4.29. As for `Clc1ccc(N=c2ssnc2Cl)cc1`, the pIC50 is 4.59. On to `Cc1ccc(C(=O)OCn2ncc(Cl)c(Cl)c2=O)cc1`, for which the negative logarithm of the IC50 (pIC50) is 5.43. Consider `Cc1ccc(O)c(-c2cc(-c3cccc(F)c3)n[nH]2)c1`, for which the negative logarithm of the IC50 (pIC50) is 4.71. As for `O=C(O)CCn1cc(/C=C/C(=O)c2ccc(Cl)cc2)c(-c2ccc(Br)cc2)n1`, the IC50 was > 100 µM (inactive). Consider `Cc1nc2ccc(NC(=O)c3cc([N+](=O)[O-])cc([N+](=O)[O-])c3Cl)cc2s1`, for which the negative logarithm of the IC50 (pIC50) is 4.54. On to `O=C(/C(=C/O)N=Nc1ccccc1)c1ccncc1`, for which the pIC50 is 4.84.
